Where “and” joins values, the source holds several entries; their conditions need not be identical. Equal entries are not always repeated.
Experiments:
[1] = system: heart allograft rejection; experiment: Rat heart transplantation; format: in vivo; details: rat heart transplant, Lewis/DA, 30 mg/kg bid
Procedure: The strain combination used: Male Lewis (RT^1 haplotype) and DA (RT^1 haplotype). The animals are anaesthetised using inhalational isofluorane. […] The aorta is ligated and divided distal to the first branch and the brachiocephalic trunk is divided at the first bifurcation. The left pulmonary artery is ligated and divided and the right side divided but left open. All other vessels are dissected free, ligated and divided and the donor heart is removed into iced saline.
The recipient is prepared by dissection and cross-clamping of the infra-renal abdominal aorta and vena cava. The graft is implanted with end-to-side anastomoses, using 10/0 monofilament suture, between the donor brachiocephalic trunk and the recipient aorta and the donor right pulmonary artery to the recipient vena cava. The clamps are removed, the graft tethered retroabdominally, the abdominal contents washed with warm saline and the animal is closed and allowed to recover under a heating lamp. Graft survival is monitored by daily palpation of the beating donor heart through the abdominal wall. Rejection is considered to be complete when heart beat stops. Increases of graft survival are obtained in animals treated with a compound of formula I, II, III or IV or a pharmaceutically acceptable salt or solvate thereof administered orally at a daily dose of 10 to 30 mg/kg bid. […]

[2] = system: Balb/c spleen cells stimulated by irradiated or mitomycin C treated CBA spleen cells; experiment: Murine mixed lymphocyte reaction (MLR); format: cell-based; details: Mus musculus, 120 h, 5 days co-incubation, labeled precursor incorporation into DNA, read-out: IC50 (concentration resulting in 50% inhibition of cell proliferation)
Procedure: Spleen cells (0.5×10^6) from Balb/c mice (female, 8-10 weeks) are co-incubated for 5 days with 0.5×10^6 irradiated (2000 rads) or mitomycin C treated spleen cells from CBA mice (female, 8-10 weeks). The irradiated allogeneic cells induce a proliferative response in the Balb/c spleen cells which can be measured by labeled precursor incorporation into the DNA. […] The antiproliferative effect of the compounds on the Balb/c cells is measured at various dilutions and the concentration resulting in 50% inhibition of cell proliferation (IC50) is calculated.

| Compound | prolongation of graft survival [1] | IC50 [2] |
| --- | --- | --- |
| Cn1cc(C2=C(c3cn(C4CCN(Cc5ccccn5)CC4)c4ccccc34)C(=O)NC2=O)c2ccccc21 [Compound A, 3-(1-methyl-1H-indol-3-yl)-4-[1-{(1-pyridin-2-ylmethyl)-piperidin-4-yl}-1H-indol-3-yl]-pyrrole-2,5-dione] | 14 days and 25 days and 26 days | – |
| Cn1cc(C2=C(c3cn(C4CCNCC4)c4ccccc34)C(=O)NC2=O)c2ccccc21 [Compound B, 3-(1-methyl-1H-indol-3-yl)-4-[1-(piperidin-4-yl)-1H-indol-3-yl]-pyrrole-2,5-dione] | – | 195 nM |

Source: US20070232658A1, “Protein Kinase C Inhibitors for the Treatment of Autoimmune Diseases and of Transplant Rejiction” (priority 2004, published 2007)
